According to ChEMBL document CHEMBL1130614, “Design and synthesis of a pyridone-based phosphotyrosine mimetic” (Bioorg Med Chem Lett, 1998):
pIC50: −log10 of the molar value.

Legend:
[1] = Inhibition of CD19 phosphopeptide binding to p85 N-terminal SH2 domain at 50 uM.
[2] = Inhibition of CD19 phosphopeptide binding to p85 N-terminal SH2 domain at 20 uM.
[3] = biological target: Platelet-derived growth factor receptor (Homo sapiens, UniProt P09619+P16234); assay: Inhibition of PDGF-beta receptor binding to p85 SH2-domain; format: protein-complex assay

Row | inhibition [1] [%] | SMILES | inhibition [2] [%] | pIC50 [3]
1 | 50 | CCCCN(CCCC)C(=O)[C@H](C)NC(=O)[C@@H](NC(=O)[C@H](Cc1ccn(CP(=O)(O)O)c(=O)c1)NC(C)=O)C(C)C | – | –
2 | – | CCCCN(CCCC)C(=O)[C@H](C)NC(=O)[C@@H](NC(=O)[C@H](Cc1ccc(OP(=O)(O)O)cc1)NC(C)=O)C(C)C | 98 | 7.11
